In patent US6777564B2, “Anthraquinone compound” (Industrial Technology Research Institute, priority 2001, dated 2004):
Values after ≈ are worked out from the molar mass of the structure shown. Like-named read-outs stand apart in the source and are kept apart here.

Tests used:
BC-1: human breast cell = test: anti-cancer activity test (cytotoxicity), BC 1; assay type: cell-based; settings: BC 1 cells; for IC50: Homo sapiens, BC1
[1] = system: HT-1088: human fibrosarcoma cell; test: anti-cancer activity test (cytotoxicity), HT; assay type: cell-based; settings: HT cells; for IC50: Homo sapiens
Lu1: human lung cell = test: anti-cancer activity test (cytotoxicity), Lu1; assay type: cell-based; settings: Lu1 cells; for IC50: Homo sapiens
[2] = system: Mel2: human melanoma cell; test: anti-cancer activity test (cytotoxicity), Mel2; assay type: cell-based; settings: Mel2 cells; for IC50: Homo sapiens
Col2: human colon cell = test: anti-cancer activity test (cytotoxicity), Col2; assay type: cell-based; settings: Col2 cells; for IC50: Homo sapiens
[3] = system: KB: human oral epidormaid Carcinama cell; test: anti-cancer activity test (cytotoxicity), KB; assay type: cell-based; settings: KB cells; for IC50: Homo sapiens
Procedure: (§1) The compounds were further screened on 60 human cancer cell lines by Developmental Therapeutics Program Human Tumor Cell Line Screen set up by the National Cancer Institute of the U. S. A. The screening procedures are described briefly hereinafter. Cell suspensions that were diluted according to the particular cell type and the expected target cell density (5000-40,000 cells per well based on cell growth characteristics) were added by pipet (100 μL) into 96-well microtiterplates. Inoculates were allowed a preincubation period of 24 hours at 37° C. for stabilization. Dilutions at twice the intended test concentration were added in 100 μL aliquots to the microtiter plate wells at time zero. Usually, test compounds were evaluated at five 10-fold dilutions. In routine testing, the highest well concentration was 10^−4 M, but for the standard agents the highest well concentration used depended on the agent. Incubations lasted for 48 hours in 5% CO2 atmosphere and 100% humidity. The cells were assayed by using the sulforhodamine B assay. A plate reader was used to read the optical densities, and a microcomputer processed the optical densities into the special concentration parameters. The results of these tests with representative compounds of the present invention appear in Table 1 and 2

[4] = system: KB-V: drug resisteant KB cell; test: anti-cancer activity test (cytotoxicity), KB-V; assay type: cell-based, human; settings: KB-V cells; for IC50: Homo sapiens
[5] = system: P-388: mouse lymphaid Macrophage cell; test: anti-cancer activity test (cytotoxicity), P-388; assay type: cell-based; settings: P-388 cells; for IC50: Mus musculus, P388
[6] = system: A431: human squamous cell; test: anti-cancer activity test (cytotoxicity), A431; assay type: cell-based; settings: A431 cells; for IC50: Homo sapiens, A-431
[7] = system: LNCaP: human prostate cell; test: anti-cancer activity test (cytotoxicity), LNCaP; assay type: cell-based; settings: LNCaP cells; for IC50: Homo sapiens
[8] = system: ZR-75-1: human breast cell; test: anti-cancer activity test (cytotoxicity), ZR-75-1; assay type: cell-based; settings: ZR-75-1 cells; for IC50: Homo sapiens
U373: human glioma cell = test: anti-cancer activity test (cytotoxicity), U373; assay type: cell-based; settings: U373 cells; for IC50: Homo sapiens, U373 MG
HIV-1 RT(p66) = molecular target: T1, HIV-1 RT(p66) (Human immunodeficiency virus type 1 group M subtype B, UniProt P04585); test: anti-virus activity test, HIV-1 RT(p66) inhibition; assay type: biochemical; settings: for activity inhibition (%) / inhibition at 200 µg/mL: at 200 μg/ml; for activity inhibition (%) / IC50 / inhibition at 200 µg/mL: HIV-1 RT(p66); for activity inhibition / anti-virus ability (in words): at the concentration of 200 μg/ml
T1 construct: 1-10 at 200 μg/ml to HIV-1 RT(p66)

human cancer cell lines = test: anti-cancer activity test, overall over the cell line panel; assay type: cell-based; settings: summary of Table 1
Procedure: as §1

[9] = read-out: IC50 (μg/ml) (converted)

Row | Compound | IC50 BC 1 (BC-1: human breast cell) [µg/mL] | IC50 HT [1] [µg/mL] | IC50 Lu1 (Lu1: human lung cell) [µg/mL] | activity inhibition / anti-virus ability (in words) (HIV-1 RT(p66)) | cytotoxic activity to cancer cell lines (in words) (human cancer cell lines) | IC50 (BC-1: human breast cell) [µg/mL] | IC50 [1] [µg/mL] | IC50 (Lu1: human lung cell) [µg/mL] | IC50 [2] [µg/mL] | IC50 (Col2: human colon cell) [µg/mL] | IC50 [3] [µg/mL] | IC50 ([4]; with vinblastine (+VLB)) [µg/mL] | IC50 ([4]; without vinblastine (−VLB)) [µg/mL] | IC50 [5] [µg/mL] | IC50 [6] [µg/mL] | IC50 [7] [µg/mL] | IC50 [8] [µg/mL] | IC50 (U373: human glioma cell) [µg/mL] | IC50 (HIV-1 RT(p66); [9]) [µM] | inhibition at 200 µg/mL (HIV-1 RT(p66)) [%] | further results
1 | 1-benzyl carbamidoacetamidoanthraquinone [Example 1] | >20 | 13.9 | >20 | anti-virus ability but not so strong as the others | – | – | – | – | – | – | – | – | – | – | – | – | – | – | – | – | IC50 Mel2 [2]: >20 µg/mL; IC50 Col2 (Col2: human colon cell): >20 µg/mL; IC50 KB [3]: >20 µg/mL; IC50 KB-V (+VLB) ([4]; with vinblastine (+VLB)): 3.8 µg/mL; IC50 KB-V (−VLB) ([4]; without vinblastine (−VLB)): >20 µg/mL; IC50 P-388 [5]: >5 µg/mL; IC50 A431 [6]: >20 µg/mL; IC50 LNCaP [7]: 14.7 µg/mL; IC50 ZR-75-1 [8]: >20 µg/mL; IC50 U373 (U373: human glioma cell): >20 µg/mL; activity inhibition (%) (HIV-1 RT(p66)): 47.0%
2 | N=C(N)NCC(=O)Nc1ccc2c(c1)C(=O)c1ccccc1C2=O [Example 4, 2-guanidinoacetamido anthraquinone] | 4.9 (≈ 15.2 µM) | 2.1 (≈ 6.52 µM) | 14.1 (≈ 43.7 µM) | excellent effect on activity inhibition | more effective to most cancer cell lines | – | – | – | – | – | – | – | – | – | – | – | – | – | – | – | IC50 Mel2 [2]: 9.8 µg/mL (≈ 30.4 µM); IC50 Col2 (Col2: human colon cell): 12.1 µg/mL (≈ 37.5 µM); IC50 KB [3]: 2.9 µg/mL (≈ 9 µM); IC50 KB-V (+VLB) ([4]; with vinblastine (+VLB)): 7.5 µg/mL (≈ 23.3 µM); IC50 KB-V (−VLB) ([4]; without vinblastine (−VLB)): >20 µg/mL; IC50 P-388 [5]: >5 µg/mL; IC50 A431 [6]: 0.8 µg/mL (≈ 2.48 µM); IC50 LNCaP [7]: 12.5 µg/mL (≈ 38.8 µM); IC50 ZR-75-1 [8]: 3.6 µg/mL (≈ 11.2 µM); IC50 U373 (U373: human glioma cell): 0.88 µg/mL (≈ 2.73 µM); IC50 (HIV-1 RT(p66)): 18.9 µg/mL; activity inhibition (%) (HIV-1 RT(p66)): 99.4%
3 | N=C(N)NCC(=O)Nc1ccc2c(c1N)C(=O)c1ccccc1C2=O [Example 6, 1-amino-2-guanido acetamidoanthraquinone] | – | – | – | excellent effect on activity inhibition | more effective to most cancer cell lines | 7.8 (≈ 23.1 µM) | 4.5 (≈ 13.3 µM) | > 20 | > 20 | > 20 | 5.9 (≈ 17.5 µM) | 7.9 (≈ 23.4 µM) | > 20 | > 5 | 0.9 (≈ 2.67 µM) | > 20 | 6.9 (≈ 20.5 µM) | 2 (≈ 5.93 µM) | 119 | 99.7 | –
4 | N=C(N)NCC(=O)Nc1ccc(N)c2c1C(=O)c1ccccc1C2=O [Example 2, 4-amino-1-guanido acetamidoanthraquinone] | – | – | – | excellent effect on activity inhibition | more effective to most cancer cell lines | 1.6 (≈ 4.74 µM) | 2 (≈ 5.93 µM) | 3.1 (≈ 9.19 µM) | 4.4 (≈ 13 µM) | 4.2 (≈ 12.5 µM) | 1.2 (≈ 3.56 µM) | 16 (≈ 47.4 µM) | > 20 | > 5 | 0.4 (≈ 1.19 µM) | 4.1 (≈ 12.2 µM) | 3.4 (≈ 10.1 µM) | 0.6 (≈ 1.78 µM) | 25.8 | 99.5 | –
5 | 4-amino-1-benzyl Carbamidoacetamidoanthraquinone [Example 5] | >20 | >20 | >20 | anti-virus ability but not so strong as the others | – | – | – | – | – | – | – | – | – | – | – | – | – | – | – | – | IC50 Mel2 [2]: >20 µg/mL; IC50 Col2 (Col2: human colon cell): >20 µg/mL; IC50 KB [3]: >20 µg/mL; IC50 KB-V (+VLB) ([4]; with vinblastine (+VLB)): 2.9 µg/mL; IC50 KB-V (−VLB) ([4]; without vinblastine (−VLB)): >20 µg/mL; IC50 P-388 [5]: >5 µg/mL; IC50 A431 [6]: >20 µg/mL; IC50 LNCaP [7]: >20 µg/mL; IC50 ZR-75-1 [8]: >20 µg/mL; IC50 U373 (U373: human glioma cell): >20 µg/mL; activity inhibition (%) (HIV-1 RT(p66)): 23.0%
6 | N=C(N)NCC(=O)Nc1ccc2c(c1)C(=O)c1ccc(N)cc1C2=O [Example 7, 6-amino-2-guanidoacetamidoanthraquinone] | – | – | – | excellent effect on activity inhibition | more effective to most cancer cell lines | 3.6 (≈ 10.7 µM) | 1.6 (≈ 4.74 µM) | > 20 | 6.8 (≈ 20.2 µM) | 3.2 (≈ 9.49 µM) | 1.2 (≈ 3.56 µM) | > 20 | > 20 | 1.1 (≈ 3.26 µM) | 0.6 (≈ 1.78 µM) | 6.3 (≈ 18.7 µM) | 3.3 (≈ 9.78 µM) | 0.4 (≈ 1.19 µM) | 37.1 | 99.7 | –
7 | N=C(N)NCC(=O)Nc1ccc2c(c1)C(=O)c1ccc(NC(=O)CNC(=N)N)cc1C2=O [Example 8, 2,6-di(guanidinoacetamido)anthraquinone] | – | – | – | – | more effective to most cancer cell lines | 5 (≈ 11.5 µM) | 6 (≈ 13.7 µM) | 12.2 (≈ 28 µM) | 12.7 (≈ 29.1 µM) | 3.3 (≈ 7.56 µM) | 1.4 (≈ 3.21 µM) | > 20 | > 20 | > 5 | 5.8 (≈ 13.3 µM) | 7.2 (≈ 16.5 µM) | 7 (≈ 16 µM) | 8.6 (≈ 19.7 µM) | – | 29.3 | –
8 | 2-Benzyl Carbamidoacetamidoanthraquinone [Example 9] | 6.4 | 8.3 | 9.6 | anti-virus ability but not so strong as the others | – | – | – | – | – | – | – | – | – | – | – | – | – | – | – | – | IC50 Mel2 [2]: 15.1 µg/mL; IC50 Col2 (Col2: human colon cell): 9.6 µg/mL; IC50 KB [3]: 19.2 µg/mL; IC50 KB-V (+VLB) ([4]; with vinblastine (+VLB)): 1.4 µg/mL; IC50 KB-V (−VLB) ([4]; without vinblastine (−VLB)): >20 µg/mL; IC50 P-388 [5]: >5 µg/mL; IC50 A431 [6]: 1.7 µg/mL; IC50 LNCaP [7]: >20 µg/mL; IC50 ZR-75-1 [8]: 6.4 µg/mL; IC50 U373 (U373: human glioma cell): 4.7 µg/mL; activity inhibition (%) (HIV-1 RT(p66)): 53.4%
9 | N=C(N)NCC(=O)Nc1ccc2c(c1NC(=O)CNC(=N)N)C(=O)c1ccccc1C2=O [Example 10, 1,2-di(guanidinoacetamido)anthraquinone] | – | – | – | excellent effect on activity inhibition | more effective to most cancer cell lines | 10.2 (≈ 23.4 µM) | 8.9 (≈ 20.4 µM) | > 20 | > 20 | > 20 | 3.2 (≈ 7.33 µM) | 6.3 (≈ 14.4 µM) | > 20 | > 5 | 1.7 (≈ 3.9 µM) | 18 (≈ 41.2 µM) | > 20 | 6.9 (≈ 15.8 µM) | 69.4 | 92.3 | –
10 | N=C(N)NCC(=O)Nc1cccc2c1C(=O)c1cccc(N)c1C2=O [Example 3, 5-amino-1-guanido acetamidoanthraquinone] | – | – | – | excellent effect on activity inhibition | more effective to most cancer cell lines | 3 (≈ 8.89 µM) | 2.5 (≈ 7.41 µM) | 9.3 (≈ 27.6 µM) | 12 (≈ 35.6 µM) | 4.7 (≈ 13.9 µM) | 4.2 (≈ 12.5 µM) | 13.2 (≈ 39.1 µM) | > 20 | > 5 | 0.2 (≈ 0.593 µM) | 9 (≈ 26.7 µM) | 1.7 (≈ 5.04 µM) | 1 (≈ 2.96 µM) | 20.5 | 99.6 | –
